Like-named read-outs stand apart in the source and are kept apart here.
Experiments:
red blood corpuscles [1] = assay: Fine opening passability of red blood corpuscles (nitrocellulose membrane filter, 3.0 μm); type: cell-based, human; conditions: 37° C., 30 minutes, 3.0 μm filter, 80 mmHg/cm^2
Experimental: (§1) (1) One part by volume of human blood was mixed with 1 part by volume of a preservative solution (acid-citrate-dextrose solution) and preserved at 4° C. Just before using, it was washed 4 times with about 8 times by volume of a saline solution (2,000 rotations/minute, for 3 minutes) and a 2% saline floating solution of red blood corpuscles was prepared.
(§2) (2) A solution prepared by dissolving α1 -acid glycoprotein or a comparative substance shown in FIG. 1 in a saline solution was mixed with the same amount of the saline floating solution of red blood corpuscles, and the mixture was moderately shaked for 30 minutes at 37° C. 1 ml of the mixture was taken out and filtered by means of a nitrocellulose membrane filter (produced by Saltrius Co., diameter: 13 mm, diameter of fine openings: 3.0 μm) at 37° C. with pressing under 80 mmHg/cm^2. 0.5 ml of the filtrate was taken out and subjected to light centrifugal separation (1,500 rotations/minute, for 2 minutes). To the precipitate was added 5 ml of deionized water to cause hemolysis at a low tonicity, and a ratio of red blood corpuscles passing through the filter was calculated from the absorbance (420 nm) thereof. Further, percent hemolysis caused during the operation was calculated from the absorbance of the supernatant fluid of the filtrate.

[2] = tested on: red blood corpuscles through fine blood vessels; assay: Passability of red blood corpuscles through vital fine blood vessels (exposed rabbit mesentery, reduced blood pressure); type: in vivo
Text: A rabbit was subjected to laparotomy under urethane anesthesia to expose the mesentery and the passability of the red blood corpuscles through fine blood vessels was observed by means of a stereomicroscope.

red blood corpuscles [3] = tested on: red blood corpuscles
Experimental: as §1, §2

Rat = assay: Acute toxicity, rat; type: in vivo
Mouse = assay: Acute toxicity, mouse; type: in vivo
HeLaS3 = assay: Toxicity to cultivated cells, HeLaS3; type: cell-based
[4] = tested on: Human fetal lung fiber cell; assay: Toxicity to cultivated cells, human fetal lung fiber cell; type: cell-based
[5] = tested on: EB virus transform lymphoblast P3HR-1; assay: Toxicity to cultivated cells, P3HR-1; type: cell-based
[6] = 100 μg-1 mg/kg, arterial blood pressure 40-60 mmHg/cm^2

Substance	passage of red blood corpuscles through the filter (red blood corpuscles [1]; 0.1% solution, compared with α1 -acid glycoprotein)	stagnation of the blood flow and stopping of the blood corpuscles ([2]; in case of using dextran sulfate, reduced blood pressure)	percent hemolysis in case of passing through fine openings (red blood corpuscles [3]; human, red blood cells)	passage of red blood corpuscles through the filter (red blood corpuscles [1]; 0.05% solution, saline control did not pass at all)	impilation of corpuscles and separation of the corpuscle component from the serum [2, 6]	movement of red blood corpuscles [2, 6]	passability of red blood corpuscles through fine blood vessels under reduced blood pressure ([2]; continuously into local dominating artery or into a vein, 100 μg-1 mg/kg, blood pressure reduced by blood-letting or pentobarbital)	LD50 (Rat; intraperitoneally)	LD50 (Rat; intravenously)	LD50 (Rat; subcutaneously)	LD50 (Mouse; intraperitoneally)	LD50 (Mouse; intravenously)	LD50 (Mouse; subcutaneously)	Toxicity (50% Inhibition of propagation) (HeLaS3)	Toxicity (50% Inhibition of propagation) [4]	Toxicity (50% Inhibition of propagation) [5]	percent hemolysis in case of passing through fine openings (red blood corpuscles [3]; 0.05% solution, saline alone as high as 20%)
dextran sulfate [reference compound]	passage of the red blood corpuscles was observed too, but the effect was small as compared with the case of α1 -acid glycoprotein	such stagnation of the blood flow and stopping of the blood corpuscles were not observed	25 to 30%	–	–	–	–	–	–	–	–	–	–	–	–	–	–
α1 -acid glycoprotein: active ingredient of the present invention; substance known already, produced by the process described in Unexamined patent publication Sho 53-37187	–	–	–	the red blood corpuscles passed through the filter with hardly causing hemolysis	impilation of corpuscles and separation of the corpuscle component from the serum were not observed	the red blood corpuscles moved in the normal direction though the movement was slow	the passability of red blood corpuscles was good	> 1,000 mg/kg	> 1,000 mg/kg	> 1,000 mg/kg	> 1,000 mg/kg	> 1,000 mg/kg	> 1,000 mg/kg	> 100 µg/mL	> 100 µg/mL	> 100 µg/mL	5%
